“And” between values parts separate entries of the source, which are not always exact repeats. Equal entries are not always repeated.
How the values were obtained:
[1] = system: MDA-MB-231^GFP cells; assay: In vivo model with pretreated MDA-MB-231^GFP cells (osteolytic bone metastasis); parameters: species or system nude rats; lesion size of the rat(s) that developed lytic metastasis, % of control / lesion sizes with respect to all animals of the group compared to untreated control / lesion size of individual animal compared to the untreated control / T/C % (mean lesion size compared to untreated control): concentration or dose not given beside the values; conditions: for T/C × 100: mean lesion size vs untreated control rats; for Incidence of metastasis: cells pretreated in vitro (10 μM);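 for Mean size of lesion: mean lesion size in relative units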
[2] = system: MDA-MB-231 breast cancer cells; assay: Clonogenicity assay (colony formation); assay type: cell-based, human; conditions: 20 μM
Method: For determining the response of MDA-MB-231 colony formation to exposure with antisense oligonucleotides and erucylphospho-NNN-trimethylpropanolamine (ErPC3) the following procedure was used. MDA-MB-231 cells were treated for various periods of time (see below), harvested and counted. Cells (5000) were then transferred into semi-solid medium containing 0.8t RPMI-methylcellulose and 30% FBS. Cells were plated onto 3.5 cm Petri-dishes (1 ml/dish) (NUNC, Wiesbaden, Germany) and usual cell culture conditions (37° C., 5% CO2 in humidified air) were applied. Colony formation (clusters of 30 or more cells) was visualized by staining with 3-[4,5-dimethylthiazol-2-yl]-2,5-diphenyltetrazolium-bromide (MTT; Serva, Heidelberg, Germany) and the resulting dark blue colonies were scored by an inverted microscope after 5-7 days. At least three dishes per treatment protocol were used.
Pending on the duration of treatment, 1×10^5-3×10^5 cells were transferred onto 6 well plates (Nunc, Wiesbaden, Germany) and grown for 24 h. For transfection, ASO stock solutions were prepared in medium without FBS. According to the protocol of the manufacturer, the respective ASO stock solution was mixed with lipofectamine to allow ASO-liposome complexes to form. To 200 μl medium containing ASO quantities resulting in 10 μM (Western blot and in vivo model) and in 5, 10, or 20 μM (clonogenicity assay) final ASO-concentrations, an equal volume of medium without FBS was added containing 5, 10, or 20 μl lipofectamine, respectively. In addition to the ASO treatment, a NSO control (20 μM final concentration with 20 μl lipofectamine) and a lipofectamine control (20 μl) were used. […] After 12 h the medium was changed, and cells were further grown for 48-72 h. In the case of a sequential combination treatment this first cycle was repeated with the respective combination partner.
The alkylphosphocholine ErPC3 was synthesized and provided by Prof. H. Eibl (MPI of Biophysical Chemistry, Göttingen, FRG). For treating MDA-MB-231 cells, ErPC3 which was kept as stock solution in ethanol and PBS (10 mM; ratio of diluents 1:1; V:V), was diluted in PBS resulting in final concentrations of 10, 14, and 20 μM. The medium containing ErPC3 was changed after 24 h in all experiments and the cells were further grown for 48-72 h without ErPC3 (for details of sequential exposure see below).
Sequential combination treatment consisted of two or three treatment cycles. The two cycle treatment started either with the ASO and was followed by ErPC3 or was performed with the reverse sequence. The three cycle treatment started either with two cycles of ASO followed by ErPC3 or an initial exposure to ErPC3 was followed by two cycles with an ASO.
Colony counts are presented as mean with corresponding standard deviation. For comparison of incidences between treatment groups the x^2 test was used and for comparison of the lesion sizes the Kruskal-Wallis test was applied. P values≦0.05 were considered significant. Predicted theoretical values of combinations were calculated according to the equation: C=a×b/100, where a and b are colony counts in percent of untreated control obtained in response to single agents. For each concentration applied theoretical values were calculated and compared with the real value of the combination. In addition, isobologram and multiple drug effect analysis was examined by a suitable program (CalcuSyn, Biosoft, Ferguson, USA) to study the nature of the interaction observed. For this purpose, the dose-effect curve for each drug alone was determined based on the experimental observations using the median-effect principle; the combination index (CI) for each combination was then calculated according to the following equation:
CI=(D)1/(Dx)1+(D)2/(Dx)2+(D1)×(D2)/(Dx)1×(Dx)2
where (D)1 and (D)2 are the doses of drug 1 and drug 2 that have x effect when used in combination and (Dx)1 and (Dx)2 are the doses of drug 1 and drug 2 that have the same x effect when used alone. […]

[3] = system: osteonectin; assay: Western blot of osteonectin expression after exposure to ASOs; assay type: cell-based, human; conditions: single exposure, lipofectamine, 10 μM
[4] = system: bone sialoprotein II; assay: Western blot of bone sialoprotein II expression after exposure to ASOs; assay type: cell-based, human; conditions: 10 μM
[5] = system: MDA-MB-231^GFP cells; assay: In vivo treatment with mini-osmotic pumps (osteolytic bone metastasis model);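 for Mean size of lesion: mean lesion size in relative units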;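 for Size of lesion (per animal): lesion size in relative units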; parameters: species or system nude rats; conditions: for X-ray scan of hind legs: lytic lesions (in words): FIG. 5-7; for T/C × 100: mean lesion size vs NSO control rats; for Mean size of lesion / Size of lesion (per animal): mini-osmotic pumps; for Incidence of metastasis: mini-osmotic pumps s.c., 7 mg/kg daily over four weeks
[6] = system: osteopontin; assay: Western blot of osteopontin expression after exposure to ASOs; assay type: cell-based, human; conditions: MDA-MB231, lipofectamine, 10 μM

5′-GCGAGGGAGTTCTTCTTCTA-3′ (GCGAGGGAGTTCTTCTTCTA; phosphorothioate backbone, further chemistry not given here) [NSO, reference compound]
T/C × 100 ([1]; 4 weeks): 78 | T/C × 100 ([1]; 6 weeks): 95 | T/C × 100 ([1]; 8 weeks): 140 | X-ray scan of hind legs: osteolytic lesions (in words) ([1]; FIG. 3 and FIG. 4, one rat each, cells pre-exposed): large osteolytic lesions in the femur, tibia and fibula | Incidence of metastasis ([1]; observation period 4 weeks): 2/2 | Mean size of lesion ([1]; observation period 4 weeks, pretreated cells): 173 R.U. | Incidence of metastasis ([1]; observation period 6 weeks): 2/2 | Mean size of lesion ([1]; observation period 6 weeks, pretreated cells): 287 R.U. | Incidence of metastasis ([1]; observation period 8 weeks): 2/2 | Mean size of lesion ([1]; observation period 8 weeks, pretreated cells): 485 R.U. | T/C % (mean lesion size compared to untreated control) ([1]; pretreated cells, after eight weeks): 140% | average lesion sizes compared to untreated control ([1]; pretreated cells, after four weeks): about 78% | lesion sizes with respect to all animals of the group compared to untreated control ([1]; pretreated cells, over observation period week 4 to week 8): 104% | % Control ([2]; Exp. III a): 94% | Mean colony no. ([2]; Exp. III a, control 456): 430 | % Control ([2]; Experiment II, single treatment): 96% | Mean colony no. ([2]; Experiment II, single treatment, control 705): 676 | % Control ([2]; Experiment III b): 97% | Mean colony no. ([2]; Experiment III b, control 517): 504 | osteonectin expression in relation to untreated control (100%) ([3]; MDA-MB231): 94% | osteonectin expression in relation to untreated control (100%) ([3]; MDA-MB231^F (growing without FBS)): 80% | osteonectin expression in relation to untreated control (100%) ([3]; MDA-MB435s): 97% | bone sialoprotein II expression in relation to untreated control (100%) ([4]; MDA-MB231, single exposure, electroporation): 99% | bone sialoprotein II expression in relation to untreated control (100%) ([4]; MDA-MB231, single exposure, lipofectamine): 100% | bone sialoprotein II expression in relation to untreated control (100%) ([4]; MDA-MB231, twofold exposure, lipofectamine): 97% | bone sialoprotein II expression in relation to untreated control (100%) ([4]; MDA-MB231^F (growing without FBS), single exposure, lipofectamine): 100% | bone sialoprotein II expression in relation to untreated control (100%) ([4]; MDA-MB435s, single exposure, lipofectamine): 65% | X-ray scan of hind legs: lytic lesions (in words) ([5]; eight weeks after tumor cell implantation): clear increase of lytic lesions in the tibia and fibula | X-ray scan of hind legs: lytic lesions (in words) ([5]; four weeks after tumor cell implantation, therapy from implantation): small lytic lesions in the tibia | X-ray scan of hind legs: lytic lesions (in words) ([5]; six weeks after tumor cell implantation): visible lytic lesions in the tibia and fibula | X-ray scan of hind legs: lytic lesions (in words) ([5]; ten weeks after tumor cell implantation): lytic metastases with clear deterioration are visible in all regions of the right hind leg | T/C × 100 ([5]; week 4): 100 | Mean size of lesion ([5]; week 4): 33 R.U. | Size of lesion (per animal) ([5]; week 4): 45 R.U. and 8 R.U. and 46 R.U. | Incidence of metastasis ([5]; week 4): 3/3 | T/C × 100 ([5]; week 6): 100 | Mean size of lesion ([5]; week 6): 177 R.U. | Size of lesion (per animal) ([5]; week 6): 307 R.U. and 29 R.U. and 194 R.U. | Incidence of metastasis ([5]; week 6): 3/3 | T/C × 100 ([5]; week 8): 100 | Mean size of lesion ([5]; week 8): 273 R.U. | Size of lesion (per animal) ([5]; week 8): 403 R.U. and 99 R.U. and 318 R.U. | Incidence of metastasis ([5]; week 8): 3/3 | T/C × 100 ([5]; week 9): 100 | Mean size of lesion ([5]; week 9): 379 R.U. | Size of lesion (per animal) ([5]; week 9): 453 R.U. and 278 R.U. and 406 R.U. | Incidence of metastasis ([5]; week 9): 3/3 | T/C × 100 ([5]; week 10): 100 | Mean size of lesion ([5]; week 10): 429 R.U. | Size of lesion (per animal) ([5]; week 10): 512 R.U. and 313 R.U. and 461 R.U. | Incidence of metastasis ([5]; week 10): 3/3 | T/C × 100 ([5]; week 12): 100 | Mean size of lesion ([5]; week 12): 434 R.U. | Size of lesion (per animal) ([5]; week 12): 534 R.U. and 316 R.U. and 453 R.U. | Incidence of metastasis ([5]; week 12): 3/3 | osteopontin expression in relation to untreated control (100%) ([6]; single exposure): 99.5% | osteopontin expression in relation to untreated control (100%) ([6]; twofold exposure): 99%

— patent US20090017103A1, “Antisense oligonucleotides for prevention of metastasis formation of cancer cells” (priority 2003, published 2009)
